In the test the test system is Cell Necrosis. Nature of the test: Cell necrosis assay / cell viability assay (necrosis inhibitor activity). Format: cell-based. To be noted: necrosis inhibitor activity, read-out: EC50.
Setting [1] is: EC data for 14-191 extrapolated.

Where two headings read alike, the source gives them in different places.

In the case of `O=C(N1CC(=Cc2cc3[nH]nc(F)c3cc2F)C1)N1N=CC[C@H]1c1cncc(F)c1` [Compound 322, (S)-(3-((3,5-difluoro-1H-indazol-6-yl)methylene)azetidin-1-yl)(5-(5-fluoropyridin-3-yl)-4,5-dihydro-1H-pyrazol-1-yl)methanone], the EC50 (compounds outside 14-191) fell in the range of 0.001 to 1 µM. Consider `CNc1cccc(OC2CN(C(=O)N3N=CCC3c3cc(F)cc(F)c3)C2)c1` (stereo not drawn) [Compound 231, (5-(3,5-difluorophenyl)-4,5-dihydro-1H-pyrazol-1-yl)(3-(3-(methylamino)phenoxy)azetidin-1-yl)methanone], for which the EC50 (compounds outside 14-191) lay in the range of 0.001 to 1 µM. `O=C(N1CCN(c2ccccc2)CC1)N1N=CCC1c1ccccc1` (stereo not drawn) [Compound 91, (5-phenyl-4,5-dihydro-1H-pyrazol-1-yl)(4-phenylpiperazin-1-yl)methanone]: under setting [1], the EC50 is 1 to 10 µM. Take `N#Cc1cc(OC2CN(C(=O)N3N=CC[C@H]3c3cc(F)cc(F)c3)C2)ncn1` [Compound 215, (S)-6-((1-(5-(3,5-difluorophenyl)-4,5-dihydro-1H-pyrazole-1-carbonyl)115zetidine-3-yl)oxy)pyrimidine-4-carbonitrile]: under “compounds outside 14-191”, the concentration for a half-maximal effect (EC50) was in the range of 0.001 to 1 µM.

`C[C@H]1CN(c2ncc(F)cn2)CCN1C(=O)N1N=CCC1c1cccc(F)c1` (stereo partly drawn) [Compound 117A, ((S)-5-(3-fluorophenyl)-4,5-dihydro-H-pyrazol-1-yl)((S)-4-(5-fluoropyrimidin-2-yl)-2-methylpiperazin-1-yl)methanone]: the EC50 under setting [1] was 0.001 to 1 µM.

Consider `O=C(N1CC(Oc2ncc(F)cc2F)C1)N1N=CCC1c1cc(F)cc(F)c1` (stereo not drawn) [Compound 210, (5-(3,5-difluorophenyl)-4,5-dihydro-1H-pyrazol-1-yl)(3-((3,5-difluoropyridin-2-yl)oxy)azetidin-1-)methanone], for which the EC50 (compounds outside 14-191) was 0.001 to 1 µM. As for `CNC(=O)c1cccc(OC2CN(C(=O)N3N=CCC3c3cc(F)cc(F)c3)C2)c1` (stereo not drawn) [Compound 163], the EC50 under setting [1] was 0.001 to 1 µM. In the case of `CC1CCCN(C(=O)N2N=CCC2c2ccccc2)C1` (stereo not drawn) [Compound 9, (3-methylpiperidin-1-yl)(5-phenyl-4,5-dihydro-1H-pyrazol-1-yl)methanone], the 50% effective concentration (EC50) (compounds outside 14-191) was 0.001 to 1 µM.

For `Nc1ccc(F)c(OC2CN(C(=O)N3N=CC[C@H]3c3cc(F)cc(F)c3)C2)n1` [Compound 251, (S)-(3-((6-amino-3-fluoropyridin-2-yl)oxy)azetidin-1-yl)(5-(3,5-difluorophenyl)-4,5-dihydro-1H-pyrazol-1-yl)methanone], the EC50 (compounds outside 14-191) is 0.001 to 1 µM. Consider `O=C(N1CC(Oc2ccc3cn[nH]c3c2)C1)N1N=CCC1c1cc(F)cc(F)c1` (stereo not drawn) [Compound 182], for which the EC50 under setting [1] is 0.001 to 1 µM. In the case of `NC(=O)c1nccc(O[C@@H]2CCN(C(=O)N3N=CC[C@H]3c3cc(F)cc(F)c3)C2)n1` [Compound 364, 4-(((R)-1-((S)-5-(3,5-difluorophenyl)-4,5-dihydro-1H-pyrazole-1-carbonyl)pyrrolidin-3-yl)oxy)pyrimidine-2-carboxamide], the EC50 (compounds outside 14-191) lay in the range of 0.001 to 1 µM. For `O=C(N1CC(Nc2ccccc2)C1)N1N=CCC1c1ccccc1` (stereo not drawn) [Compound 19, (5-phenyl-4,5-dihydro-1H-pyrazol-1-yl)(3-(phenylamino)azetidin-1-yl)methanone], the EC50 under setting [1] is 1 to 10 µM. Consider `N#Cc1cncc(O[C@@H]2CCN(C(=O)N3N=CC[C@H]3c3cc(F)cc(F)c3)C2)n1` [Compound 335, 6-(((R)-1-((S)-5-(3,5-difluorophenyl)-4,5-dihydro-1H-pyrazole-1-carbonyl)pyrrolidin-3-yl)oxy)pyrazine-2-carbonitrile], for which the EC50 (compounds outside 14-191) was 0.001 to 1 µM. On to `CN(c1ccccc1)C1CN(C(=O)N2N=CCC2c2ccccc2)C1` (stereo not drawn) [Compound 20, (3-(methyl(phenyl)amino)azetidin-1-yl)(5-phenyl-4,5-dihydro-1H-pyrazol-1-yl)methanone], for which, under setting [1], the EC50 is 1 to 10 µM. Turning to `O=C(Nc1nc(N2CCN(C(=O)N3N=CC[C@H]3c3cc(F)cc(F)c3)CC2)ncc1F)C1CCC1` [Compound 328, (S)—N-(2-(4-(5-(3,5-difluorophenyl)-4,5-dihydro-1H-pyrazole-1-carbonyl)piperazin-1-yl)-5-fluoropyrimidin-4-yl)cyclobutanecarboxamide], the EC50 (compounds outside 14-191) is 0.001 to 1 µM. Still for that read-out and setting: the value for `O=C(c1nc(OC2CN(C(=O)N3N=CC[C@H]3c3cc(F)cc(F)c3)C2)sc1Cl)N1CCC1` [Compound 275] was 0.001 to 1 µM.

Turning to `O=C(N1CC(Oc2c(F)cc(F)cc2F)C1)N1N=CCC1c1cc(F)cc(F)c1` (stereo not drawn) [Compound 126, (5-(3,5-difluorophenyl)-4,5-dihydro-1H-pyrazol-1-yl)(3-(2,4,6-trifluorophenoxy)azetidin-1-yl)methanone], the half-maximal effective concentration (EC50) under setting [1] was 0.001 to 1 µM. On to `O=C(N1CCN(c2ncc(F)c(OCCN3CCOCC3)n2)CC1)N1N=CC[C@H]1c1cc(F)cc(F)c1` [Compound 287, (S)-(5-(3,5-difluorophenyl)-4,5-dihydro-H-pyrazol-1-yl)(4-(5-fluoro-4-(2-morpholinoethoxy)pyrimidin-2-yl)piperazin-1-yl)methanone], for which the EC50 (compounds outside 14-191) was in the range of 0.001 to 1 µM. In the case of `C[C@@H]1CN(c2ncc(F)cn2)C[C@H](C)N1C(=O)N1N=CCC1c1cc(F)cc(F)c1` (stereo partly drawn) [Compound 30, (5-(3,5-difluorophenyl)-4,5-dihydro-1H-pyrazol-1-yl)((2R,6S)-4-(5-fluoropyrimidin-2-yl)-2,6-dimethylpiperazin-1-yl)methanone], the EC50 under setting [1] is 0.001 to 1 µM. `O=C(N1CC(Oc2cc3[nH]nc(F)c3cc2F)C1)N1N=CCC1c1cncc(F)c1` (stereo not drawn) [Compound 378, (3-((3,5-difluoro-1H-indazol-6-yl)oxy)azetidin-1-yl)(5-(5-fluoropyridin-3-yl)-4,5-dihydro-1H-pyrazol-1-yl)methanone]: under “compounds outside 14-191”, the EC50 was in the range of 0.001 to 1 µM.

Take `O=C(N1CC(C(F)(F)c2ccc(F)cc2F)C1)N1N=CCC1c1cc(F)cc(F)c1` (stereo not drawn) [Compound 135, (5-(3,5-difluorophenyl)-4,5-dihydro-1H-pyrazol-1-yl)(3-((2,4-difluorophenyl)difluoromethyl)azetidin-1-yl)methanone]: the EC50 under setting [1] was 0.001 to 1 µM. For `O=C(C1CC1)N1CCN(C(=O)N2N=CCC2c2ccccc2)CC1` (stereo not drawn) [Compound 93, (4-(cyclopropanecarbonyl)piperazin-1-yl)(5-phenyl-4,5-dihydro-1H-pyrazol-1-yl)methanone], the EC50 under setting [1] was 1 to 10 µM. For the compound `O=C(c1cc2sc(OC3CN(C(=O)N4N=CC[C@H]4c4cc(F)cc(F)c4)C3)nc2[nH]1)N1CCC1` [Compound 261, (S)-azetidin-1-yl(2-((1-(5-(3,5-difluorophenyl)-4,5-dihydro-1H-pyrazole-1-carbonyl)azetidin-3-yl)oxy)-4H-pyrrolo[2,3-d]thiazol-5-yl)methanone], the EC50 (compounds outside 14-191) is 0.001 to 1 µM. Regarding `O=C(N1CC(Oc2nc3[nH]c(=O)ccc3s2)C1)N1N=CCC1c1cc(F)cc(F)c1` (stereo not drawn) [Compound 179], the EC50 under setting [1] is 0.001 to 1 µM. On to `O=C(N1CC(Oc2ccc(F)cn2)C1)N1N=CCC1c1cc(F)cc(F)c1` (stereo not drawn) [Compound 212, (5-(3,5-difluorophenyl)-4,5-dihydro-1H-pyrazol-1-yl)(3-((5-fluoropyridin-2-yl)oxy)azetidin-1-yl)methanone], for which the EC50 (compounds outside 14-191) was in the range of 0.001 to 1 µM. In the case of `O=C(c1ccco1)N1CCN(C(=O)N2N=CCC2c2ccccc2)CC1` (stereo not drawn) [Compound 94, (4-(furan-2-carbonyl)piperazin-1-yl)(5-phenyl-4,5-dihydro-1H-pyrazol-1-yl)methanone], under setting [1], the EC50 was 1 to 10 µM. On the same count and under the same terms, as for `O=C1NCc2cc(OC3CN(C(=O)N4N=CCC4c4cc(F)cc(F)c4)C3)ccc21` (stereo not drawn) [Compound 167], the figure is 0.001 to 1 µM.

As a reminder, the EC50 is the midpoint of the concentration-response curve.
